Assay results published in patent publication US3965109A, “Certain aryl amino pyridines” (priority 1971, dated 1976).

Key:
[1] = tested on: Aedes aegypti (mosquito larvae); test: Pest toxicity test; format: in vivo; conditions: for Mortality grading (kill): 0.01% by weight, water, 1 day; for abnormal growth effects in larva of mosquitos: in vivo
[2] = tested on: Musca domestica (houseflies); test: Pest toxicity test, contact test; format: in vivo; conditions: 0.1% by weight; milk/sugar; 2 days; flies sprayed directly
[3] = tested on: Tetranychus telarius (red spider mites, adults); test: Pest toxicity test; format: in vivo; conditions: 0.1% by weight; French bean; 3 days
Aphis fabae = test: Pest toxicity test; format: in vivo; conditions: 0.1% by weight; broad bean; 2 days
[4] = tested on: Aedes aegypti (mosquito adults); test: Pest toxicity test; format: in vivo; conditions: 0.01% by weight; plywood; 1 day
Megoura viceae = test: Pest toxicity test; format: in vivo; conditions: 0.1% by weight; broad bean; 2 days
[5] = tested on: Tetranychus telarius (red spider mites, eggs); test: Pest toxicity test; format: in vivo; conditions: 0.1% by weight; French bean; 3 days
[6] = tested on: Plutella maculipennis (diamond back moth larvae); test: Pest toxicity test; format: in vivo
[7] = tested on: Pieris brassicae (cabbage white caterpillars); test: Pest toxicity test; format: in vivo; conditions: 0.1% by weight, 2 days
[8] = tested on: Phaedon cochleariae (mustard beetles); test: Pest toxicity test; format: in vivo
[9] = tested on: Agriolimax reticulatus (slugs); test: Molluscicidal activity test; format: in vivo, Agriolimax reticulatus (Mull); conditions: pellet with 4% by weight; 6 days; 10°C
In short: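 Compound was applied to a calf feeding pellet at 4% by weight active ingredient after 24 h air drying. Two replicates, each of 2 slugs starved 24 h, were kept with a moist filter paper at 10°C, and kill was assessed after 6 days.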

[10] = tested on: Meloidogyne incognita (nematodes); test: Pest toxicity test; format: in vivo; conditions: 0.01% by weight; water; 1 day
Uncinula necator (vine) = test: Fungicidal test against foliar disease D (foliage spray plus soil drench); format: in vivo; conditions: 100 ppm spray and drench; 10 days
Streptomyces scabies = test: Antibacterial agar test (B7); format: cell-based; conditions: 50 ppm; 5 days
[11] = tested on: Corynebacterium michiganense; test: Antibacterial agar test (B2); format: cell-based; conditions: 50 ppm; 5 days
Protocol: (§1) This Example illustrates the activity of compounds used as the active ingredients of compositions according to the invention against a variety of plant bacterial diseases and fungal post-harvest saprophytic diseases. In a test for such activity, 5 milligrams of the compound to be tested was dissolved or suspended in 10 ml. of acetone and enough of this solution or suspension was added to 18 ml. of nutrient agar (for the bacterial diseases) or 16 ml. of 2% malt agar (for the fungal diseases) to give a final concentration of 50 parts per million of the compound under test. A streptomycin preparation (2 ml. containing 100 units per ml.) was added to the malt agar to prevent bacterial contamination of the fungal tests.
(§2) The agar preparations were dried overnight in Petri dishes and inoculated the following morning with the bacterial or fungal diseases using a multipoint inoculator. The antibacterial activity was assessed after 5 days and the antifungal activity after 6 days. The results of the tests are set out in Table 16 (anti bacterial activity) and Table 17 (antifungal activity). The results are graded as in Example 1 above.

[12] = tested on: Plasmopara viticola (vine); test: Fungicidal test against foliar disease C (foliage spray plus soil drench); format: in vivo; conditions: 100 ppm spray and drench; 10 days
Pseudomonas syringae = test: Antibacterial agar test (B6); format: cell-based; conditions: 50 ppm; 5 days
Erwinia carotovora = test: Antibacterial agar test (B4); format: cell-based; conditions: 50 ppm; 5 days
[13] = tested on: Puccinia recondita (wheat); test: Fungicidal test against foliar disease A (foliage spray plus soil drench); format: in vivo; conditions: 100 ppm spray and drench; 10 days
[14] = tested on: Agrobacterium tumifaciens; test: Antibacterial agar test (B1); format: cell-based; conditions: 50 ppm; 5 days
Xanthomonas oryzae = format: cell-based; conditions: 50 ppm; 5 days
Xanthomonas malvacearum = test: Antibacterial agar test (B3); format: cell-based; conditions: 50 ppm; 5 days
Protocol: as §1, §2

[15] = tested on: Piricularia oryzae (rice); format: in vivo; conditions: 100 ppm spray and drench; 7 days
[16] = 0.1% by weight, mustard/paper, 2 days

SMILES | Mortality grading (kill) [1] | abnormal growth effects in larva of mosquitos [1] | Mortality grading (kill), contact test [2] | Mortality grading (kill) [3] | Mortality grading (kill) (Aphis fabae) | Mortality grading (kill) [4] | Mortality grading (kill) (Megoura viceae) | Mortality grading (kill) [5] | Mortality grading (kill) [7] | % Kill of slugs [9] [%] | Mortality grading (kill) [10] | Mortality grading (kill) ([6]; in vivo) | Mortality grading (kill) ([8]; in vivo) | Amount of disease grading, disease D (Uncinula necator (vine)) | Amount of disease grading, disease C [12] | Amount of disease grading, disease A [13] | also measured
Fc1ccc(Nc2c(Cl)c(F)nc(F)c2Cl)cc1 [Compound 4, 3,5-Dichloro-2,6-difluoro-4(p-fluoroanilino)pyridine] | 0 (O represents less than 30% kill) | abnormal growth effects | 0 (O represents less than 30% kill) | 0 (O represents less than 30% kill) | 0 (O represents less than 30% kill) | 0 (O represents less than 30% kill) | 0 (O represents less than 30% kill) | 0 (O represents less than 30% kill) | 0 (O represents less than 30% kill) | 100 | 2 (2 represents 60 - 90% kill) |  |  |  |  |  | Mortality grading (kill) [6, 16]: 0 (O represents less than 30% kill); Mortality grading (kill) [8, 16]: 0 (O represents less than 30% kill)
O=[N+]([O-])c1ccccc1Nc1c(Cl)c(F)nc(F)c1Cl [Compound 11, 3,5-Dichloro-2,6-difluoro-4(2-nitroanilino)pyridine] | 0 (O represents less than 30% kill) |  | 0 (O represents less than 30% kill) | 0 (O represents less than 30% kill) | 0 (O represents less than 30% kill) | 0 (O represents less than 30% kill) | 0 (O represents less than 30% kill) | 0 (O represents less than 30% kill) | 0 (O represents less than 30% kill) |  | 2 (2 represents 60 - 90% kill) | 0 (key: O represents less than 30% kill; 1 represents 30 - 49% kill; 2 represents 60 - 90% kill; 3 represents over 90% kill; C indicates a chemosterilant effect.; A indicates an antifeeding effect.) | 0 (key: O represents less than 30% kill; 1 represents 30 - 49% kill; 2 represents 60 - 90% kill; 3 represents over 90% kill; C indicates a chemosterilant effect.; A indicates an antifeeding effect.) |  |  |  | 
O=[N+]([O-])c1ccc(Nc2c(F)c(F)nc(F)c2F)c([N+](=O)[O-])c1 [Compound 15, 4(2,4-Dinitroanilino)-tetrafluoropyridine] | 0 (O represents less than 30% kill) |  | 2 (2 represents 60 - 90% kill) | 3 (3 represents over 90% kill) | 0 (O represents less than 30% kill) | 0 (O represents less than 30% kill) | 0 (O represents less than 30% kill) | 2 (2 represents 60 - 90% kill) | 3 (3 represents over 90% kill) | 50 |  | 0 (key: O represents less than 30% kill; 1 represents 30 - 49% kill; 2 represents 60 - 90% kill; 3 represents over 90% kill; C indicates a chemosterilant effect.; A indicates an antifeeding effect.) | 2 (key: O represents less than 30% kill; 1 represents 30 - 49% kill; 2 represents 60 - 90% kill; 3 represents over 90% kill; C indicates a chemosterilant effect.; A indicates an antifeeding effect.) | 3 (0 to 5) | 3 (0 to 5) | 2 (6 to 25) | Antibacterial activity grading B7 (Streptomyces scabies): 3 (0 to 5); Antibacterial activity grading B2 [11]: 3 (0 to 5); Antibacterial activity grading B6 (Pseudomonas syringae): 3 (0 to 5); Antibacterial activity grading B4 (Erwinia carotovora): 3 (0 to 5); Antibacterial activity grading B1 [14]: 3 (0 to 5); Antibacterial activity grading B5 (Xanthomonas oryzae): 3 (0 to 5); Antibacterial activity grading B3 (Xanthomonas malvacearum): 3 (0 to 5)
COc1ccc(Nc2c(Cl)c(F)nc(F)c2Cl)c([N+](=O)[O-])c1 [Compound 18, 3,5-Dichloro-2,6-difluoro-4(4-methoxy-2-nitroanilino)pyridine] | 0 (O represents less than 30% kill) |  |  | 0 (O represents less than 30% kill) | 0 (O represents less than 30% kill) | 0 (O represents less than 30% kill) | 0 (O represents less than 30% kill) | 2 (2 represents 60 - 90% kill) | 0 (O represents less than 30% kill) | 50 | 0 (O represents less than 30% kill) | 0 (key: O represents less than 30% kill; 1 represents 30 - 49% kill; 2 represents 60 - 90% kill; 3 represents over 90% kill; C indicates a chemosterilant effect.; A indicates an antifeeding effect.) | 0 (key: O represents less than 30% kill; 1 represents 30 - 49% kill; 2 represents 60 - 90% kill; 3 represents over 90% kill; C indicates a chemosterilant effect.; A indicates an antifeeding effect.) |  |  |  | 
Fc1nc(F)c(Cl)c(Nc2cc(C(F)(F)F)ccc2Br)c1Cl [Compound 13, 3,5-Dichloro-2,6-difluoro-4(2-bromo-5-trifluoromethylanilino)pyridine] | 0 (O represents less than 30% kill) | abnormal growth effects | 0 (O represents less than 30% kill) | 0 (O represents less than 30% kill) | 0 (O represents less than 30% kill) | 0 (O represents less than 30% kill) | 0 (O represents less than 30% kill) | 0 (O represents less than 30% kill) | 0 (O represents less than 30% kill) |  | 0 (O represents less than 30% kill) | 0 (key: O represents less than 30% kill; 1 represents 30 - 49% kill; 2 represents 60 - 90% kill; 3 represents over 90% kill; C indicates a chemosterilant effect.; A indicates an antifeeding effect.) | 0 (key: O represents less than 30% kill; 1 represents 30 - 49% kill; 2 represents 60 - 90% kill; 3 represents over 90% kill; C indicates a chemosterilant effect.; A indicates an antifeeding effect.) | 0 (61 to 100) | 3 (0 to 5) | 0 (61 to 100) | Amount of disease grading, disease E [15]: 2 (6 to 25)
